Measured values taken from US11008323B2, “Substituted tricyclic 1,4-benzodiazepinone derivatives as allosteric modulators of group II metabotropic glutamate receptors” (Domain Therapeutics, priority 2015, dated 2021).

Target: T1, human mGluR3 (hmGluR3) (Homo sapiens, UniProt Q14832)
T1 construct: expressed in transfected cells; host or cells: HEK-293 cells, transient co-transfection by electroporation
Assay: Human mGluR3 positive allosteric modulator evaluation using Ca++ functional assay
Type: cell-based
Details: hmGluR3 transiently over-expressed in HEK-293 cells; stimulated by EC50 glutamate concentration; intracellular Ca2+ (Fluo4AM, FLIPR Tetra)
Protocol: Compounds of the present invention were tested successively for their agonist and positive allosteric modulator activities on human mGluR3 (hmGluR3) transiently over-expressed in HEK-293 cells. Compounds exert agonist activity if they are able to activate hmGluR3 by themselves, i.e., in absence of the endogenous agonist glutamate; and they exert positive allosteric modulator activity if they increase the action of the endogenous agonist glutamate.
HEK-293 cells were maintained in Modified Eagle's Medium supplemented with 10% Foetal Calf Serum, 1% Penicillin/Streptomycin and 1% non-essential amino acids at 37° C./5% CO2.
Cells were co-transfected by electroporation with four DNA plasmids encoding hmGluR3, a chimeric G protein allowing redirection of the activation signal toward intracellular calcium pathway, and two glutamate transporters so as to decrease extracellular glutamate levels and avoid receptor desensitization (Brabet I et al., Neuropharmacology 37(8), 1043-51, 1998). After transfection, cells were seeded in 75 cm^2 culture flasks, and cultured for 24 h.
Receptor activity was detected by changes in intracellular calcium measured using the fluorescent Ca^2+ sensitive dye, Fluo4AM (Molecular Probes).
The day of the assay, medium was aspirated and replaced during 3 hrs by freshly prepared buffer B (HBSS 1×, Hepes 20 mM, MgSO4-7H2O 1 mM, Na2CO3 3.3 mM, CaCl2-2H2O 1.3 mM, 0.5% BSA, Probenecid 2.5 mM). Then, cells were loaded at 37° C./5% CO2 for 1.5 hrs with buffer B containing 1 μM Fluo4AM, 0.1 mg/mL Pluronic Acid, 7 μg/mL Glutamate Pyruvate Transaminase and 2 mM sodium pyruvate. Afterwards cells were washed with buffer B. Cells were then detached from the 75 cm^2 culture flasks with Accutase® (5 min incubation at 37° C.), centrifuged (5 min at 840 rpm), resuspended in buffer B and finally seeded at a density of 30,000 cells/well in black-walled clear-bottom 384-well plates. Addition of compounds on cells and intracellular Ca^2+ measurements (excitation 485 nm, emission 525 nm) were performed by the fluorescence microplate reader FLIPR Tetra (Molecular Devices).
Agonist and positive allosteric modulator activities of compounds were consecutively evaluated on the same cells plate. Agonist activity was first tested during 10 min with the addition of compound alone on the cells. Then, the cells were stimulated by an EC50 glutamate concentration and fluorescence was recorded for additional 3 min. EC50 glutamate concentration is the concentration giving 50% of the maximal glutamate response. Agonist and/or positive allosteric modulator activity(ies) were evaluated in comparison to basal signal or signal evoked by EC50 glutamate concentration alone, respectively.
For potency determination, a dose-response test was performed using 20 concentrations of each compound of the invention. Dose-response curves were fitted using the sigmoïdal dose-response (variable slope) analysis in XLfit Scientific Curve Fitting for Excel (IDBS). EC50 of agonist/EC50 of positive allosteric modulator activity(ies) were calculated. Dose-response experiments were all performed in duplicate, two times independently.

T1 sequence (Q14832 23-879): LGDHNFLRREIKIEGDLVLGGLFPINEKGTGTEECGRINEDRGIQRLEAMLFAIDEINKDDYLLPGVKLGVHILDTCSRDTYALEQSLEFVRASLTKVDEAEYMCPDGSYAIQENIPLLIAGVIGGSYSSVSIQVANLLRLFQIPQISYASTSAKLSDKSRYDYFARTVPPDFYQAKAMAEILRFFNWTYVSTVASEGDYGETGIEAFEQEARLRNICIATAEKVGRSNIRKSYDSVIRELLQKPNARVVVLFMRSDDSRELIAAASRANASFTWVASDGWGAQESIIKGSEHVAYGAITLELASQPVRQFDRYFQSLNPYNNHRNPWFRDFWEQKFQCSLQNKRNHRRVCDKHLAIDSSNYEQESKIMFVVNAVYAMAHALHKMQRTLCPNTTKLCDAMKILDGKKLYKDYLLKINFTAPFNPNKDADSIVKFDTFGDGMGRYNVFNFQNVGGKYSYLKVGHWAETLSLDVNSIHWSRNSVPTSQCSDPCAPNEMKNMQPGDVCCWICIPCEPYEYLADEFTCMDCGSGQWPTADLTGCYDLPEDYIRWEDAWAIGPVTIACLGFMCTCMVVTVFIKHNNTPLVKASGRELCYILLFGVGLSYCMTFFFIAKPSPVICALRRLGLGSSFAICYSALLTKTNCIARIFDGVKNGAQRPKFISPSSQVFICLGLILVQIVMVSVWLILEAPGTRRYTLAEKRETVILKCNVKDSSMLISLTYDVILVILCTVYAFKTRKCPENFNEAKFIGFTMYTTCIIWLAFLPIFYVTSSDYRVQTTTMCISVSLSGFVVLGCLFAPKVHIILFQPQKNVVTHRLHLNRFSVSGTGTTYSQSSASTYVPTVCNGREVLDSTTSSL

Row | SMILES | EC50 [µM]
1 | Cc1ccnc(C)c1-c1ccc2c(c1)-n1cccc1C(=O)N(C)C21CC1 [Example 65, 5-Methyl-9-(2,4-dimethylpyridin-3-yl)-spiro[benzo[f]pyrrolo[1,2-a][1,4]diazepine-6,1′-cyclopropan]-4(5H)-one] | > 1
2 | Cc1ncccc1-c1ccc2c(c1F)-n1cccc1C(=O)N(C)C21CC1 [Example 75, 10-Fluoro-5-methyl-9-(2-methyl-pyridin-3-yl)-spiro[benzo[f]pyrrolo[1,2-a][1,4]diazepine-6,1′-cyclopropan]-4(5H)-one] | 0.1 to 1
3 | Cc1ncccc1-c1cc2c(cc1F)C1(CC1)N(C)C(=O)c1cccn1-2 [Example 77, 8-Fluoro-5-methyl-9-(2-methyl-pyridin-3-yl)-spiro[benzo[f]pyrrolo[1,2-a][1,4]diazepine-6,1′-cyclopropan]-4(5H)-one] | 0.1 to 1
4 | Cc1ncccc1-c1ccc2c(c1)-n1ccc(Cl)c1C(=O)N(C)C21CC1 [Example 84, 9-(2-Methyl-pyridin-3-yl)-3-chloro-5-methyl-spiro[benzo[f]pyrrolo[1,2-a][1,4]diazepine-6,1′-cyclopropan]-4(5H)-one] | 0.1 to 1
5 | Cc1ncccc1-c1cccc2c1-n1cccc1C(=O)N(C)C21CC1 [Example 92, 10-(2-Methyl-pyridin-3-yl)-5-methyl-spiro[benzo[f]pyrrolo[1,2-a][1,4]diazepine-6,1′-cyclopropan]-4(5H)-one] | > 1
6 | CN1C(=O)c2cc(-c3ccccc3)cn2-c2cc(-c3ccc(N)nc3)ccc2C12CC2 [Example 96, 5-Methyl-2-phenyl-9-(6-amino-pyridin-3-yl)-spiro[benzo[f]pyrrolo[1,2-a][1,4]diazepine-6,1′-cyclopropan]-4(5H)-one] | 0.1 to 1
7 | Cc1cc(-c2ccc3c(c2)-n2cc(-c4ccccc4)cc2C(=O)N(C)C32CC2)cc(C)n1 [Example 97, 5-Methyl-2-phenyl-9-(2,6-dimethyl-pyridin-4-yl)-spiro[benzo[f]pyrrolo[1,2-a][1,4]diazepine-6,1′-cyclopropan]-4(5H)-one] | 0.1 to 1
8 | Cc1cncc(-c2ccc3c(c2)-n2cc(-c4ccccc4)cc2C(=O)N(C)C32CC2)c1 [Example 98, 5-Methyl-2-phenyl-9-(5-methyl-pyridin-3-yl)-spiro[benzo[f]pyrrolo[1,2-a][1,4]diazepine-6,1′-cyclopropan]-4(5H)-one] | 0.1 to 1
9 | CCc1ncccc1-c1ccc2c(c1)-n1cc(-c3ccccc3)cc1C(=O)N(C)C21CC1 [Example 99, 5-Methyl-2-phenyl-9-(2-ethyl-pyridin-3-yl)-spiro[benzo[f]pyrrolo[1,2-a][1,4]diazepine-6,1′-cyclopropan]-4(5H)-one] | 0.1 to 1
10 | Cc1ccncc1-c1ccc2c(c1)-n1cc(-c3ccccc3)cc1C(=O)N(C)C21CC1 [Example 101, 5-Methyl-2-phenyl-9-(4-methyl-pyridin-3-yl)-spiro[benzo[f]pyrrolo[1,2-a][1,4]diazepine-6,1′-cyclopropan]-4(5H)-one] | 0.1 to 1
11 | CN1C(=O)c2cc(-c3ccccc3)cn2-c2cc(-c3cncnc3)ccc2C12CC2 [Example 104, 5-Methyl-2-phenyl-9-(pyrimidin-5-yl)-spiro[benzo[f]pyrrolo[1,2-a][1,4]diazepine-6,1′-cyclopropan]-4(5H)-one] | 0.1 to 1
12 | Cc1cc(-c2ccc3c(c2)-n2cc(-c4ccccc4)cc2C(=O)N(C)C32CC2)ccn1 [Example 105, 5-Methyl-2-phenyl-9-(2-methyl-pyridin-4-yl)-spiro[benzo[f]pyrrolo[1,2-a][1,4]diazepine-6,1′-cyclopropan]-4(5H)-one] | 0.1 to 1
13 | CN1C(=O)c2cc(-c3ccccc3)cn2-c2cc(-c3cccnn3)ccc2C12CC2 [Example 109, 5-Methyl-2-phenyl-9-pyridazin-3-yl-spiro[benzo[f]pyrrolo[1,2-a][1,4]diazepine-6,1′-cyclopropan]-4(5H)-one] | 0.1 to 1
14 | CN1C(=O)c2cc(-c3ccccc3)cn2-c2cc(-c3ccccn3)ccc2C12CC2 [Example 111, 5-Methyl-2-phenyl-9-(pyridin-2-yl)-spiro[benzo[f]pyrrolo[1,2-a][1,4]diazepine-6,1′-cyclopropan]-4(5H)-one] | < 0.1
15 | CCc1ccc(-c2ccc3c(c2)-n2cc(-c4ccccc4)cc2C(=O)N(C)C32CC2)cn1 [Example 112, 5-methyl-2-phenyl-9-(6-ethylpyridin-3-yl)-spiro[benzo[f]pyrrolo[1,2-a][1,4]diazepine-6,1′-cyclopropan]-4(5H)-one] | < 0.1
16 | CN(C)c1ccc(-c2ccc3c(c2)-n2cc(-c4ccccc4)cc2C(=O)N(C)C32CC2)cn1 [Example 114, 5-Methyl-2-phenyl-9-(6-dimethylamino-pyridin-3-yl)-spiro[benzo[f]pyrrolo[1,2-a][1,4]diazepine-6,1′-cyclopropan]-4(5H)-one] | < 0.1
17 | CN(C)c1ccc2c(c1)-n1cc(-c3ccccc3)cc1C(=O)N(C)C21CC1 [Example 115, 9-Dimethylamino-5-methyl-2-phenyl-spiro[benzo[f]pyrrolo[1,2-a][1,4]diazepine-6,1′-cyclopropan]-4(5H)-one] | > 1
18 | CNc1ccc(-c2ccc3c(c2)-n2cc(-c4ccccc4)cc2C(=O)N(C)C32CC2)cn1 [Example 118, 5-Methyl-2-phenyl-9-(6-methylamino-pyridin-3-yl)-spiro[benzo[f]pyrrolo[1,2-a][1,4]diazepine-6,1′-cyclopropan]-4(5H)-one] | < 0.1

The remaining lines, values ahead:

Row | EC50 [µM] | SMILES
19 | < 0.1 | Cc1ncccc1-c1cc(F)c2c(c1)-n1cccc1C(=O)N(C)C21CC1 [Example 73, 7-Fluoro-5-methyl-9-(2-methyl-pyridin-3-yl)-spiro[benzo[f]pyrrolo[1,2-a][1,4]diazepine-6,1′-cyclopropan]-4(5H)-one]
20 | < 0.1 | Cc1ncccc1-c1ccc2c(c1)-n1c(F)ccc1C(=O)N(C)C21CC1 [Example 81, 9-(2-Methyl-pyridin-3-yl)-1-fluoro-5-methyl-spiro[benzo[f]pyrrolo[1,2-a][1,4]diazepine-6,1′-cyclopropan]-4(5H)-one]
21 | < 0.1 | Cc1ncccc1-c1ccc2c(c1)-n1cc(Cl)cc1C(=O)N(C)C21CC1 [Example 82, 9-(2-Methyl-pyridin-3-yl)-2-chloro-5-methyl-spiro[benzo[f]pyrrolo[1,2-a][1,4]diazepine-6,1′-cyclopropan]-4(5H)-one]
22 | < 0.1 | Cc1ncccc1-c1ccc2c(c1)-n1c(cc(Cl)c1F)C(=O)N(C)C21CC1 [Example 83, 9-(2-Methyl-pyridin-3-yl)-2-chloro-1-fluoro-5-methyl-spiro[benzo[f]pyrrolo[1,2-a][1,4]diazepine-6,1′-cyclopropan]-4(5H)-one]
23 | < 0.1 | CN1C(=O)c2cc(-c3ccccc3)cn2-c2cc(-c3cccnc3)ccc2C12CC2 [Example 93, 5-Methyl-2-phenyl-9-pyridin-3-yl-spiro[benzo[f]pyrrolo[1,2-a][1,4]diazepine-6,1′-cyclopropan]-4(5H)-one]
24 | < 0.1 | Cc1ncccc1-c1ccc2c(c1)-n1cc(-c3ccccc3)cc1C(=O)N(C)C21CC1 [Example 95, 5-Methyl-2-phenyl-9-(2-methyl-pyridin-3-yl)-spiro[benzo[f]pyrrolo[1,2-a][1,4]diazepine-6,1′-cyclopropan]-4(5H)-one]
25 | < 0.1 | CN1C(=O)c2cc(-c3ccccc3)cn2-c2cc(-c3ccncc3)ccc2C12CC2 [Example 102, 5-Methyl-2-phenyl-9-(pyridin-4-yl)-spiro[benzo[f]pyrrolo[1,2-a][1,4]diazepine-6,1′-cyclopropan]-4(5H)-one]
26 | < 0.1 | Cc1ccc(-c2ccc3c(c2)-n2cc(-c4ccccc4)cc2C(=O)N(C)C32CC2)cn1 [Example 103, 5-Methyl-2-phenyl-9-(6-methyl-pyridin-3-yl)-spiro[benzo[f]pyrrolo[1,2-a][1,4]diazepine-6,1′-cyclopropan]-4(5H)-one]
27 | < 0.1 | Cc1ccc(-c2ccc3c(c2)-n2cc(-c4ccccc4)cc2C(=O)N(C)C32CC2)c(C)n1 [Example 107, 5-Methyl-2-phenyl-9-(2,6-dimethyl-pyridin-3-yl)-spiro[benzo[f]pyrrolo[1,2-a][1,4]diazepine-6,1′-cyclopropan]-4(5H)-one]
